# Measurements: patent US6403618B1, “Agent and method for controlling angiogenesis” (Novactyl, Inc., priority 2000, dated 2002)
# Columns and labels:
# recombinant MPS-1 = recombinant MPS-1 (Homo sapiens, UniProt P42677); assay: Zinc dependent binding of MPS-1 to DNA, gel shift assays and 65Zn; type: biochemical
# From the text: MPS-1 is a ubiquitous tumor marker and cell growth stimulator and is described in detail in the inventor's U.S. Pat. No. Re.35,585 (No. 5,243,041). MPS-1 has one zinc finger domain of the type CCCC. […] This is detected by a change in the electrophoretic mobility of MPS-1 under non-denaturing conditions. These experiments indicate that picolinic acid and derivatives should remove zinc and denature various types of zinc finger or zinc ring proteins, whether known or heretofore undiscovered, including viral proteins such as nucleocapsid p7 proteins, as will be explained further. Furthermore, the inventor has determined that any chemical compound, whether known or heretofore undiscovered, that will remove the zinc (or other metal) and denature the proteins or that will form a ternary complex (protein-zinc-chelator) can be effective as a therapeutic agent or as an autologous immune response modulator, as will be discussed in greater detail below.
# iron in the cells = details: cited from earlier work
# psoriasis = assay: Treatment of proliferative skin disorders; type: in vivo, human; details: topical, preliminary information
# From the text: Several patients suffering from proliferative skin disorders such as psoriasis have been included in a recent ongoing study of the anti-proliferative effects of topical picolinic acid. […] The patients may be treated with a topical application of approximately 5% to 20% picolinic acid, or a derivative thereof, in an absorption base. Alternatively, the patient may be treated with a solution containing approximately 5% to 20% picolinic acid, or derivative, in deionized water. The topical preparation may be applied twice a day or in an alternative pharmacologically acceptable regimen.
# normal cells = details: cited from earlier work
# [1] = Stability experiments as preservative in foods and on fresh fruits; type: physicochemical; details: in foods and on the surface of fresh fruits
# From the text: (§1) The chelating agents of the present invention can be used as preservatives in perishable items such as foods and pharmaceuticals and to prevent fungal growth on the surface of fresh fruits. Presently chemicals such as citrashine orthophenilphenol thiabendazole are used. […] Microbial and fungal growth is inhibited while the food components are unaffected. The preservative of the present invention has less likelihood of toxicity or untoward reactions if ingested that the present, complex chemical antifungals. The preferred concentration of picolinic acid or acceptable derivative for this use is approximately 1% to approximately 99%.
# WI-38 cells = assay: Effects of picolinic acid on growth (total cell protein); type: cell-based
# Method: (§2) Cells were plated at 1.5×10^5 cells/60-mm dish; 48 hours later, the medium was removed, and new media with or without 3 mM picolinic acid was added. Total cell protein was determined at the indicated times; each point is the average of triplicate measurements from 2 cultures.
# LoVo cells = assay: as above; type: cell-based
# Method: as §2
# human papilloma viruses = assay: Treatment of patients with papilloma virus skin lesions (common warts); type: in vivo
# Method: Five patients ranging in age from 11 years to 52 years and each having at least one common wart induced by human papilloma viruses was treated with a topical preparation of picolinic acid. The topical preparation was either solution of 10% to 20% picolinic acid in deionized water or a topical ointment wherein 10% picolinic acid is incorporated into Aquaphor, i.e.1 g of picolinic acid in 10 g of Aquaphor.
# metastatic cancer = assay: Systemic administration in metastatic cancer; type: in vivo; details: 00 gelatin capsules at 500 mg per capsule
# From the text: A systemic preparation of a picolinic acid, its derivatives or analogs containing approximately 1% to 100% active ingredient may be administered orally, intravenously or by any acceptable route for the treatment of cancer and systemic infections. […] The preparation can be provided as a flavored oral solution. Likewise, an injectable form may be prepared.
# LD-50 = details: in vivo
# [2] = tested on: Microbial and fungal growth; assay: Preservative use in foods and on fresh fruits
# From the text: as §1
# [3] = tested on: metastatic breast cancer lesions; assay: Treatment of metastatic disease to the skull from breast cancer; type: in vivo, human; details: topical 10% picolinic acid in Aquaphor, changed twice daily
# Method: A person with metastatic breast cancer to the skin and bone of the skull was treated with a topical preparation of 10% picolinic acid in Aquaphor. The preparation was applied to the cancerous lesions and to a bandage and changed twice daily. The multiple cancer lesions were approximately 1 to 1.5 cm in diameter.
# [4] = tested on: papilloma virus ulcerative lesion; assay: Treatment of ulcerative lesion with topical picolinic acid; type: in vivo, horse
# Method: The lesion was progressive, with total loss of hair over the area. The diagnosis was viral disease, i.e. papilloma virus, complicated by fungal infection. The horse was treated with conventional local antibiotic and chemical therapies for about four months.
# An aqueous solution of 10% picolinic acid in deionized water was applied every other day with a cotton swab over and around the lesion. The treatment continued for 45 days. The course of the regression of the viral lesion was as follows: […]
# transformed cells = details: cited from earlier work
# KB cells = assay: Effects of picolinic acid on growth (total cell protein); type: cell-based, human; details: 3 mM
# Method: as §2
# recurrent plantar wart = assay: Treatment of virus-induced plantar ulcer; type: in vivo, human
# Method: A patient with recurrent plantar wart of about 2 cm in diameter was treated with topical picolinic acid. The patient, a pathologist who had difficulty walking because of the pain caused by the ulcer, had experimented with numerous medications for more than three months without any significant results prior to treatment with the picolinic acid. It is relevant to note that many plantar ulcers are transformed into malignant tumors.
# The patient was treated with a solution of 10% picolinic acid in deionized water for one week. […] They then were treated with 10% picolinic acid in Aquaphor. The ointment was placed on the ulcer and on a patch. The patch was replaced every 24 hours.
# From the text for actinic lesions: Two patients with actinic lesions (average of 5 lesions per patient, each lesion being approximately 3 mm to 5 mm in diameter) were diagnosed as requiring liquid nitrogen removal of the lesions. The patients received a daily application of 10% picolinic acid in Aquaphor.
structure (smiles),measurement,setting,value
"O=C(O)c1ccccn1 [picolinic acid, 2-Pyridine carboxylic acid]",removal of radioactive 65Zn from MPS-1,"recombinant MPS-1; CCCC zinc finger, electrophoretic mobility, non-denaturing conditions",remove radioactive ^65Zn from MPS-1
same,zinc dependent binding of recombinant MPS-1 to DNA,recombinant MPS-1; gel shift assays,inhibit
same,incorporation of iron into the cells,iron in the cells,inhibits
same,removal of radioiron from the cells,iron in the cells,effectively removes
same,regression of psoriasis,psoriasis,significant effect in inducing regression
same,toxic effects,"normal cells; longer exposure, most normal cells",no toxic effects
same,cell cycle arrest,normal cells; short-term treatment,"arrests normal cells in G1, (Go)"
same,stability as preservative,[1],highly stable
same,growth of normal WI-38 cells,"WI-38 cells; 3 mM picolinic acid, within 24 hours",inhibited
same,toxic effects,"WI-38 cells; 3 mM, up to 72 hours of treatment",no toxic effects
same,growth of LoVo cells,"LoVo cells; 3 mM picolinic acid, FIG. 2",inhibited
same,cytotoxicity,"LoVo cells; 3 mM, longer exposure 48-72 hours",cytotoxicity and cell death was observed
same,resolution with ointment versus solution,human papilloma viruses; 10% picolinic acid in Aquaphor,faster resolution
same,wart appearance,"human papilloma viruses; topical 10-20% solution or 10% Aquaphor ointment, after seven days",central necrosis of the wart occurred
same,"course of disease, 10% versus 20% solutions",human papilloma viruses; topical solution in deionized water,no significant difference
same,control of metastatic cancer,metastatic cancer,effective
same,LD-50,LD-50,140 grams/70 Kg
same,lesion outcome,"actinic lesions; daily 10% picolinic acid in Aquaphor, approximately three weeks, two patients",completely cured
same,effects on normal skin,actinic lesions; in vivo,without any effects on normal skin
same,Microbial and fungal growth,[2],inhibited
same,time until lesions resolved with scar tissue,[3],approximately 35 days
same,lesion appearance,"[4]; 10% aqueous solution topical every other day, after 10 days",central necrosis
same,diameter of the lesion,"[4]; 10% aqueous solution topical, after 20 days, 3 inch at start",approximately 2 inches
same,diameter of the lesion,"[4]; 10% aqueous solution topical, after 30 days",about 1 inch
same,lesion outcome,"[4]; 10% aqueous solution topical, at 45 days",resolved with some scar tissue
same,recurrence,[4]; after three additional months,without evidence of recurring disease
same,cytotoxicity,transformed cells,cytotoxicity and cell death was observed
same,cell cycle arrest,transformed cells; short-term treatment,blocked in different phases of the cell cycle
same,cytotoxic effects relative to LoVo cells,KB cells,not as pronounced as in the case of LoVo cells
same,growth and cytotoxicity compared with LoVo results,KB cells,Equivalent results were obtained
same,ulcer appearance,recurrent plantar wart; 10% solution in deionized water for one week,Central necrosis was noted
same,ulcer outcome,"recurrent plantar wart; then 10% in Aquaphor with patch, after an additional three weeks",resolved
